In patent US20220096664A1, “STABILIZED FORMULATIONS CONTAINING IODINATED CONTRAST AGENTS AND CYCLODEXTRINS” (Verrow Pharmaceuticals, Inc., priority 2012, published 2022):
“Also recorded” adds a separate entry of the source. Where two headings read alike, the source gives them in different places.

Assays:
[1] = Photostability: iodide formed after UV light irradiation; assay type: physicochemical; conditions: pH 8
Description: Aqueous solutions comprising iodinated contrast agents were prepared and evaluated in a photolysis chamber as described in the ICH guidance document, Q1B Photostability Testing of New Drug Substances and Products, available from the US Food and Drug Administration, incorporated herein by reference. The solutions were placed in 1 cm×1 cm (3 mL) quartz cuvettes having 2 clear sides and 2 sides etched. Lids were placed on the cuvettes and sealed with a wrap of Parafilm® around the joint. The cuvettes were placed in a photolysis chamber, upright on a flat surface beneath and centered between two horizontal 24 inch fluorescent lamps, (GE, black light F20T12, 20 watt for ultraviolet, or Philips F20T12/CW, 20 watt for visible) placed 6 cm apart. The cuvettes were positioned such that their two clear sides were facing the two lamps.
Cuvettes were spaced ˜2 cm from each other, and no closer than 15 cm from the ends of the lamps. This positioning allowed reproducible light exposure to all cuvettes.
(§1) The lamps were switched on and the solutions irradiated for 18 to 24 hours for the ultraviolet (UV) lamps or 72 to 90 hours for the visible (VIS) light lamps. At the end of the selected irradiation time, the cuvettes were removed from the photolysis chamber and mixed by inversion 2-times. The caps were then removed and 40 microliter aliquots taken and diluted with 1 mL of an aqueous solution containing ˜0.9 mg/mL sodium thiosulfate. The thiosulfate solution converted any I2, IO3^−, and I3^− present in the solution tor such that total iodine species could be determined in one assay.
(§2) The diluted solutions were assayed by high pressure liquid chromatography (HPLC) using a 4.6×250 mm, C-18, 5 micron particle size, reversed phase column with detection at 280 nm for the contrast agent and 230 nm for the thiosulfate and the iodide ion (r). A mobile phase of 30:70 methanol:aqueous buffer (50 mM KH2PO4+7 mL/L 40% tetrabutyl ammonium hydroxide) at 0.75 mL/min was used for elution. Injection volume was 20 microliters. External standards were prepared containing each contrast agent, potassium iodide, and sodium thiosulfate solution and analyzed along with the irradiated samples. The results were reported as weight percentage iodide formed (mg iodide/mg contrast agent times 100).
The absorbance readings at 400 nm due to light exposure were plotted against time of exposure and the resulting correlation used to determine the UV and VIS light exposure. A change in absorbance reading of 0.45 was assumed equivalent to 200 watt hours/square meter for the UV light and a change of 0.51 was assumed equivalent to 1.2 million lux hours for the VIS light. The UV lamps provided 6.62 watts/square meter and the VIS lamps provided 7180 lux.
Aqueous solutions were prepared containing 50 mM contrast agent by diluting commercially available solutions with water. Tromethamine HCl buffer (TRIS), was added to solutions as necessary to increase the TRIS content to that of the commercial product before dilution.
SCD was added to the solutions at various mole ratios and the pH of the solutions adjusted to 7.4 with 0.1N hydrochloric acid or 0.1N sodium hydroxide. The solutions were irradiated with UV light for 18 hours (119 watt hours/m^2) then processed, analyzed and reported as in Example 2. The SCDs evaluated were sulfobutyl ether beta-cyclodextrin with an average degree of substitution of 7 (SBE-704CD), and two 2-hydroxypropyl beta-cyclodextrin derivatives having 6.3 (HP-6.3n/CD) and 4.3 (HP-4.3-βCD) average degrees of substitution.
Aqueous solutions were prepared containing 50 mM contrast agent by diluting commercially available solutions with distilled water. Tromethamine HCl buffer (TRIS), was added to some solutions to increase the buffer content.
The solutions were divided and SBE-7-CD added to one aliquot at a contrast agent:SCD mole ratio of 1:1. The pH of the solutions was adjusted to 5, 6, 7, 7.4 or 8 with 0.1N hydrochloric acid or sodium hydroxide. […]

[2] = assay type: physicochemical
Description: as §1, §2
Aqueous solutions were prepared containing 50 mM iodinated contrast agent, 10 mM tromethamine HCl buffer (TRIS), with and without sulfobutylether beta-cyclodextrin with an average degree of substitution-7 (SBE7-β-CD), or 2-hydroxypropyl beta-cyclodextrin with an average degree of substitution of ˜6.3 (HP6.3-β-CD) or ˜4.3 (HP4.3-β-CD). The iohexol solution was prepared by dissolving solid iohexol powder while the other solutions were prepared by diluting commercial formulated products and adding sufficient TRIS buffer to reach 10 mM. The pH of the solutions was adjusted to 7.4 with 0.1N hydrochloric acid.
Aliquots of the solutions were irradiated with visible light for 72 hours (0.52 million lux hours). Other aliquots were autoclaved for 20 minutes at 121° C., cooled to room temperature and then irradiated with ultraviolet light for 18 hours (119 watt hours/m2). The solutions were then processed, analyzed and reported as in Example 2, except that the chromatographic peaks of the contrast agents were evaluated at 300 nm for both samples and standards.
Aqueous solutions were prepared containing 50 mM iohexol, 0, 2.5, 5, 7.5, or 10 mM tromethamine HCl (TRIS) buffer, with and without 2.5 mM sulfobutylether beta-cyclodextrin with an average degree of substitution-7 (SBE7-β-CD). The pH of the solutions was adjusted to 7.4 with 0.1N hydrochloric acid and the solutions were transferred to glass vials. The vials were stoppered, crimp-capped and autoclaved for 20 minutes at 121° C. The pH of the autoclaved solutions was measured after the solutions were at room temperature.
Aliquots of the autoclaved solutions were irradiated with visible light for 72 hours (0.52 million lux hours) and other aliquots irradiated with ultraviolet light for 18 hours (119 watt hours/m2). The solutions were then processed, analyzed and reported as in Example 2, except that the chromatographic peak of the iohexol was evaluated at 300 nm for both samples and standards.
Aqueous formulations were prepared containing iodinated contrast agents at concentrations used commercially in medical procedures. Sulfobutylether-cyclodextrin, sodium salt, average degree of substitution ˜7 (SBE7CD) was added at varying agent:CD mole ratios. The formulations were placed in glass vials, sealed with rubber stoppers and aluminum crimps, and autoclaved at 121° C. for 20 minutes. […]

[3] = tested on: Beagle dog; test: Cardiovascular electrophysiology and hemodynamics after injection into the left main coronary artery; assay type: in vivo
Description: Aqueous formulations were prepared containing 755 mg/mL iohexol without (formulation 1) or with (formulation 2) sulfobutylether β-cyclodextrin, sodium salt (average degree of substitution-7) at an iohexol:SCD mole ratio of 1:0.025. The addition of the SCD added 154 mM sodium to the solution as its counterion. The formulations also contained 0.1 mg/mL edetate calcium disodium hydrate, and 1.2 mg/mL tromethamine buffer, with the pH of each solution adjusted to 7.4 with 1N HCl. The solutions were sterilized by filtration through a 0.22 micron filter. […]
The instrumentation provided measurement of right heart pressure, left ventricular pressure, aortic pressure, cardiac output and electrocardiography (ECG). The specific parameters measured were: systolic artery pressure (SAP), mean aortic pressure (MAP), diastolic aortic pressure (DAP), left ventricular systolic pressure (LVSP), left ventricular end diastolic pressure (LVEDP), left ventricle dP/dtmax (an indirect measure of contractile force), left ventricle dP/dtmin, cardiac output (CO), systemic vascular resistance (SVR), pulmonary vascular resistance (PVR), pulmonary artery pressure (PAP), monophasic action potential duration (MAPD30%, 50%, 90%), heart rate (HR), and from the ECG; PR interval, QRS duration, QT/QTc interval, JT/JTc interval (as needed) and arrhythmogenesis.

[4] = contrast media solutions; cited from earlier work
[5] = tested on: endothelial HMEC cells; conditions: incubation with sodium or potassium iodide; cited from earlier work
[6] = tested on: bovine aortic endothelial cells; conditions: cited from earlier work

CC(=O)N(CC(O)CO)c1c(I)c(C(=O)NCC(O)CO)c(I)c(C(=O)NCC(O)CO)c1I (stereo not drawn) [Iohexol, iohexol]
stabilization against photolysis by UV light [1]: stabilized iohexol against photolysis by UV light | iodide degradant after UV irradiation in the presence of the SCD [2]: Less of the iodide degradant was observed in the presence of the SCD | stabilization against photolysis by visible light irradiation [2]: the SCD also stabilized the solutions against photolysis by visible light irradiation | qualitative alterations in electrocardiographic morphology ([3]; concomitant with injection into the coronary artery): QRS complex widening along with ST segment depression; also recorded: Scattered premature ventricular contractions | ECG morphology returned to normal after the last injection ([3]; intracoronary): within five minutes | degradation in solution after exposure to ultraviolet light [4]: formation of iodine and iodide ions

I [iodide]
toxicity in cultured endothelial HMEC cells [5]: causes toxicity

CN(C(=O)CO)c1c(I)c(C(=O)NCC(O)CO)c(I)c(C(=O)NCC(O)CO)c1I (stereo not drawn) [iomeprol]
toxicity to bovine aortic endothelial cells ([6]; X-ray irradiated contrast agent): toxic to bovine aortic endothelial cells | toxicity to bovine aortic endothelial cells ([6]; non-irradiated contrast agent): not toxic
